# Assay results: publication PMC7914298 (Bioorganic & medicinal chemistry, 2020)
# Like-named read-outs stand apart in the source and are kept apart here.
# How the values were obtained:
# [1] = biological target: T1, native MDH (malate dehydrogenase) (Sus scrofa, UniProt P00346); type: biochemical
# T1 sequence (P00346 25-338): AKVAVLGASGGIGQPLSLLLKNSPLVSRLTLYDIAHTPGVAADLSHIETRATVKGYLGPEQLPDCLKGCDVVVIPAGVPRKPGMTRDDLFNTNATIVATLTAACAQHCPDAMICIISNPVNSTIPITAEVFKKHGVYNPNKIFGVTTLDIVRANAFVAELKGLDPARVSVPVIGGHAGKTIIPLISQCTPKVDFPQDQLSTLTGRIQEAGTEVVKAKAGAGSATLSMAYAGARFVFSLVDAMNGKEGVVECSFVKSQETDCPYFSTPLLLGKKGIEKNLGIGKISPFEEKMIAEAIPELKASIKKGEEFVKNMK
# [2] = system: human FHs 74 Int small intestinal cells; experiment: Alamar Blue cell viability assay, FHs 74 Int small intestine cells; conditions: for Cytotoxicity to human cells (in words): FHs 74 Int shown, FHC colon cells similar
# [3] = system: Klebsiella pneumoniae (ATCC #13883); experiment: K. pneumoniae bacterial proliferation assay; type: cell-based
# [4] = biological target: T1, native MDH (malate dehydrogenase); experiment: Native MDH enzymatic activity counter-screen; type: biochemical
# [5] = system: human mitochondrial HSP60/10 chaperonin system; conditions: ref [59], [84]; cited from earlier work
# [6] = system: NEB 5-alpha E. coli; type: cell-based, Escherichia coli; conditions: 12-day serial passage, duplicates
# [7] = system: resistant E. coli strains; experiment: Cross-resistance testing of resistant E. coli strains; type: cell-based, Escherichia coli; conditions: for Cross-resistance of 17-resistant E. coli strains (in words): strains initially made resistant to 17; for Cross-resistance of nitrofurantoin-resistant E. coli strains (in words): strains initially made resistant to nitrofurantoin; for Cross-resistance of nifuroxazide-resistant E. coli strains (in words): strains initially made resistant to nifuroxazide
# [8] = biological target: E. coli GroEL/ES (Escherichia coli, UniProt P0A6F5); experiment: In situ NfsB-GroEL/ES-dMDH refolding assay; type: biochemical; conditions: activated by E. coli NfsB
# Sequence of E. coli GroEL/ES (P0A6F5 2-548): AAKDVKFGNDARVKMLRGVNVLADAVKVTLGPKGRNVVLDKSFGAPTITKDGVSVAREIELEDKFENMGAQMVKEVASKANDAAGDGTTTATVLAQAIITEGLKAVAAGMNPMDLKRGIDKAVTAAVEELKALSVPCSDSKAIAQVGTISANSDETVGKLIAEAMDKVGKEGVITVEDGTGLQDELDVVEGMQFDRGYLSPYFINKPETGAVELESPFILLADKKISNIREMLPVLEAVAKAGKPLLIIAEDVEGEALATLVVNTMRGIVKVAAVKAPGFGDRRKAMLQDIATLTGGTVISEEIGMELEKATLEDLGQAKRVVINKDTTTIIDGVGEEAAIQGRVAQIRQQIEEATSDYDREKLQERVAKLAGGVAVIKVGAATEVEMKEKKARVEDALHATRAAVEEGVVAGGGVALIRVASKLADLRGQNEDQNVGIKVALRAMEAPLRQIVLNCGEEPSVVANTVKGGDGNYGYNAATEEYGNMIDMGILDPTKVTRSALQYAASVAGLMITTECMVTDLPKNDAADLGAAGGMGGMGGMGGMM
# [9] = system: human FHC colon cells; experiment: Alamar Blue cell viability assay, FHC colon cells; conditions: CC50 FHC colon cells over EC50 E. coli proliferation
SMILES,IC50 [1] [µM],Cytotoxicity to human cells (in words) [2],IC50 [4] [µM],Time for E. coli to develop intermediate resistance [6] [days],further results
O=C(N/N=C/c1ccc([N+](=O)[O-])o1)c1cccs1 [compound 16],> 56,low to no cytotoxicity,> 63,,Inhibition of K. pneumoniae (in words) [3]: moderate inhibitors of K. pneumoniae
CN(C)c1ccc(C(=O)N/N=C/c2ccc([N+](=O)[O-])o2)cc1 [compound 21],> 56,,> 63,,
Cc1ccc(C(=O)Nc2ccc(S(=O)(=O)O)c3cc(S(=O)(=O)O)cc(S(=O)(=O)O)c23)cc1NC(=O)c1cccc(NC(=O)Nc2cccc(C(=O)Nc3cc(C(=O)Nc4ccc(S(=O)(=O)O)c5cc(S(=O)(=O)O)cc(S(=O)(=O)O)c45)ccc3C)c2)c1 [suramin],,,,,HSP60/10 inhibition (in words) [5]: potent HSP60/10 inhibitor
O=C(N/N=C/c1ccc([N+](=O)[O-])o1)c1ccc(O)cc1 [Nifuroxazide],,low to no cytotoxicity,,3 to 5,Cross-resistance of 17-resistant E. coli strains (in words) [7]: susceptible; Cross-resistance of nitrofurantoin-resistant E. coli strains (in words) [7]: still sensitive; GroEL/ES inhibition in the presence of NfsB (in words) [8]: weak to moderate
O=C(N/N=C/c1ccc([N+](=O)[O-])o1)c1ccncc1 [compound 19],> 56,,> 63,,
COc1ccc(C(=O)N/N=C/c2ccc([N+](=O)[O-])o2)cc1 [compound 20],> 56,low to no cytotoxicity,> 63,,SI (CC50 / EC50) Colon [9]: >53
O=C(N/N=C/c1ccc([N+](=O)[O-])o1)c1ccccc1 [compound 18],> 56,,> 63,,
"O=C1CN(/N=C/c2ccc([N+](=O)[O-])o2)C(=O)N1 [Nitrofurantoin, reference compound]",> 56,low to no cytotoxicity,> 63,3 to 5,"Cross-resistance of 17-resistant E. coli strains (in words) [7]: susceptible to nifuroxazide, but not nitrofurantoin; Cross-resistance of nifuroxazide-resistant E. coli strains (in words) [7]: cross-resistant; SI (CC50 / EC50) Intestine ([2]; CC50 FHs 74 Int cells over EC50 E. coli proliferation): >146; GroEL/ES inhibition in the presence of NfsB (in words) [8]: weak to moderate; SI (CC50 / EC50) Colon [9]: >146"
O=C(N/N=C/c1ccc([N+](=O)[O-])o1)c1ccc(Cl)s1 [compound 17],> 56,low to no cytotoxicity,> 63,3 to 5,Cross-resistance of nifuroxazide-resistant E. coli strains (in words) [7]: cross-resistant; Cross-resistance of nitrofurantoin-resistant E. coli strains (in words) [7]: still sensitive; Inhibition of K. pneumoniae (in words) [3]: moderate inhibitors of K. pneumoniae
